# According to US20070202141A1, “Synthetic Aggregation Pheromone For Manipulating The Behaviour Of Codling Moth, Cydia Pomonella, Larvae” (PHERO TECH INC., priority 2004, published 2007):
# Tested on: female Mastrus ridibundus antenna
# Experiment: coupled gas chromatographic-electroantennographic detection (GC-EAD)
# Conditions: Porapak Q extract of cocoon-spinning larvae; FIG. 2
# Excerpt: Aliquots of 20 CSLHE of Porapak Q-captured volatiles were subjected to analysis by coupled gas chromatographic-electroantennographic detection (GC-EAD) (Arm et al. 1975) using an antenna of Mastrus ridibundus, a specialist parasitic wasp of C. pomonella prepupae, as the electroantennographic detector. Using antennae from female M. ridibundus, instead of C. pomonella larvae, in these analyses was necessary because the antennae of C. pomonella larvae are too small for electrophysiolocial studies. It was also justified because host-seeking female M. ridibundus respond to the pheromone produced by cocoon-spinning C. pomonella larvae. In these GC-EAD analyses, 10 components (8 visible in FIG. 2) elicited responses from M. ridibundus antennae.
# FIG. 2 illustrates flame ionization detector (FID) and electroantennographic detector (EAD: female Mastrus ridibundus antenna) responses to 10 CSLHE of Porapak Q extract. Chromatography: Hewlett Packard (HP) 5890A gas chromatograph equipped with a fused silica column (30 m×0.32 mm ID) coated with DB-23 (J & W Scientific, Folsom, Calif. 95630, USA); linear flow velocity of carrier gas: 35 cm/sec; injector and FID detector temperature: 240° C.; temperature program: 1 min at 50° C., 10° C./min to 220° C. […]
structure (smiles),measurement,value
"C=C(C)C1CC=C(C)CC1 (single isomer, unassigned; (+)) [(+)-limonene]",electroantennographic detector (EAD) response,not antenally active
